Biological target: T1, KpCld (Klebsiella pneumoniae, UniProt A6TJ49)
T1 sequence (A6TJ49 1-187): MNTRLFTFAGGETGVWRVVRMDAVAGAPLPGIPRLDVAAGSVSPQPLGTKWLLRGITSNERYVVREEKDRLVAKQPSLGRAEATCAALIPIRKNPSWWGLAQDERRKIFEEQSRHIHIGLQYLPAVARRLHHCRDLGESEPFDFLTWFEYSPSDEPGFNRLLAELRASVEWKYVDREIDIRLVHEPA
Conditions: 100 mM phosphate pH 6.0; ferric enzyme; single binding site

`Br` [Br^−] was tested, and the Kd was 12.2 mM.
